According to patent US9416136B2, “Pyrrolopyrimidine compounds and their uses” (Novartis AG, priority 2008, dated 2016):

Assays:
pRb negative cells = test: cell proliferation of pRb negative cells; assay type: cell-based; conditions: high concentrations
From the text: (§1) Moreover, the inhibitory effects of the CDK4 inhibitor are absolutely dependent upon the presence of the Retinoblastoma protein (pRb). Activities in pRb negative cells for candidate CDK4 inhibitors indicate that the compounds have off-target activities and not as selective.

cell cycle = cell cycle analysis; assay type: cell-based; conditions: concentrations of 1 and 10 uM
From the text: as §1

CN(C)C(=O)c1cc2cnc(Nc3ccc(N4CCNCC4)cc3)nc2n1C1CCCC1 [Example 200]
inhibition of cell proliferation of pRb negative cells (pRb negative cells): does inhibit the cell proliferation of pRb negative cells at high concentrations | cell cycle arrest phase (cell cycle): starts to induce G2/M phase blocks
